Data from patent US12115208B2, “Small-molecule adjuvants for antibiotics to address antibiotic resistance” (HIGH POINT UNIVERSITY, priority 2017, dated 2024).
Blank lines part the entries; values can stand above or below the compound they belong to.

Experiments:
[1] = tested on: S. aureus 43300 (MRSA); assay: Antibiotic repotentiation (antibiotic MIC with/without compound); assay type: cell-based, Staphylococcus aureus
Method: (§1) The overnight culture was diluted into fresh CAMHB to a concentration of 5×10^5 CFU/ml. […] On the same plate, a standard microdilution MIC with the tested antibiotics and no added compound was also performed to compare the antibiotic MIC in the presence and absence of compound. […] Fold reductions were calculated by dividing the MIC of the antibiotic without compound by the MIC of the antibiotic in the presence of compound.
(§2) The compounds were then analyzed for antibiotic repotentiation activity. […] The tested strains included USA300, which is a common and particularly virulent strain of community-acquired MRSA.

[2] = tested on: S. aureus USA300 (MRSA); assay: as above; assay type: cell-based, Staphylococcus aureus; details: MRSA USA300
Method: as §1, §2

[3] = tested on: S. aureus NR-49120 (VRSA); assay: as above; assay type: cell-based, Staphylococcus aureus; details: VRSA NR-49120; for Fold Reduction: antibiotic MIC
Method: as §1

[4] = tested on: S. aureus USA100 (MRSA); assay: as above; assay type: cell-based, Staphylococcus aureus; details: MRSA USA100; for Fold Reduction: antibiotic MIC
Method: as §1

[5] = tested on: S. aureus ATCC 43300 (MRSA); assay: Minimum inhibitory concentration, broth microdilution; assay type: cell-based, Staphylococcus aureus; details: compound alone; S. aureus ATCC 43300 (MRSA); CAMHB, 18 h; read-out: MIC
Method: as §2

[6] = tested on: S. epidermidis ATCC 49461 biofilm; assay: Biofilm inhibition, crystal violet assay; assay type: cell-based, Staphylococcus epidermidis; details: 30 h, read-out: Inhibition of biofilm formation IC50
Method: A standard static crystal violet assay was used to quantify biofilm inhibition.^45 Cultures of S. aureus or S. epidermidis were grown overnight in TSBG (tryptic soy broth with 5% glucose) at 37° C. with shaking. These cultures were used to inoculate fresh TSBG to a calculated optical density of 0.01 at 600 nm (OD600). […] Untreated aliquots were used as a positive control and water served as a negative control. 100 μl of these suspensions were added to the wells of a 96-well polyvinylchloride microtiter plate. […] After incubation, media was discarded and the plates were washed with water to remove non-adherent cells. Adherent biofilms were stained with 110 μl of crystal violet (0.1% in water) and incubated at room temperature for thirty minutes. The crystal violet staining solution was discarded and plates were washed with water to remove excess stain. The resulting stained biofilms were solubilized with 200 μL of 95% ethanol for 10 minutes. 125 μl of the ethanol solutions were transferred to a clear polystyrene microtiter plate for evaluation. Absorbance at 540 nm was recorded using a BioTek Synergy H1 microplate reader. The absorbance of the negative control lanes was subtracted from the experimental values to account for background staining. Percent inhibition was calculated by comparison of the absorbance values of control versus treated wells under identical conditions.

[7] = +50 μM compound, S. aureus 43300 (MRSA)
[8] = oxacillin MIC, +50 μM compound, S. aureus 43300 (MRSA)
[9] = +100 μM compound, S. aureus 43300 (MRSA)
[10] = oxacillin MIC, +100 μM compound, S. aureus 43300 (MRSA)
[11] = +75 μM compound, S. aureus 43300 (MRSA)
[12] = oxacillin MIC, +75 μM compound, S. aureus 43300 (MRSA)
[13] = +31.25 μM compound, S. aureus 43300 (MRSA)
[14] = oxacillin MIC, +31.25 μM compound, S. aureus 43300 (MRSA)

Compound: CC1(C)S[C@@H]2[C@H](NC(=O)[C@H](N)c3ccccc3)C(=O)N2[C@H]1C(=O)O [Ampicillin]
MIC of antibiotic ([1]; +Amoxapine (150 μM), S. aureus 43300 (MRSA)): 4 µg/mL | MIC of antibiotic ([1]; +Loratadine 25 μM, MRSA 43300): 16/8 | MIC of antibiotic ([1]; +Loratadine 50 μM, MRSA 43300): 1/2 | Fold Reduction ([1]; antibiotic MIC, +Amoxapine (150 μM), S. aureus 43300 (MRSA)): 8 | Fold Reduction ([1]; antibiotic MIC, +Loratadine 25 μM, MRSA 43300): 1/2 | Fold Reduction ([1]; antibiotic MIC, +Loratadine 50 μM, MRSA 43300): 4 | MIC of antibiotic ([1]; antibiotic alone, no compound, S. aureus 43300 (MRSA)): 32 µg/mL | MIC of antibiotic ([1]; antibiotic alone, S. aureus ATCC 43300 (MRSA)): 16 µg/mL | MIC of antibiotic ([2]; +Loratadine 25 μM): 8 µg/mL | MIC of antibiotic ([2]; +Loratadine 50 μM): 0.5 µg/mL | MIC of antibiotic ([2]; antibiotic alone): 8 µg/mL | MIC of antibiotic ([3]; +Loratadine 25 μM): 16 µg/mL | MIC of antibiotic ([3]; +Loratadine 50 μM): 4 µg/mL | Fold Reduction ([3]; +Loratadine 25 μM): 1 | Fold Reduction ([3]; +Loratadine 50 μM): 4 | MIC of antibiotic ([3]; antibiotic alone): 16 µg/mL | MIC of antibiotic ([4]; +Loratadine 25 μM): 16 µg/mL | MIC of antibiotic ([4]; +Loratadine 50 μM): 1/2 | Fold Reduction ([4]; +Loratadine 25 μM): 2 | Fold Reduction ([4]; +Loratadine 50 μM): 32/16 | MIC of antibiotic ([4]; antibiotic alone): 32 µg/mL

Compound: Cc1ccnc2c1NC(=O)c1cccnc1N2C1CC1 [Compound I-1]
Oxacillin MIC [1, 7]: 16 µg/mL | Fold Reduction [1, 8]: 1

Compound: NC(=O)N1c2ccccc2C=Cc2ccccc21 [Compound I-2]
Oxacillin MIC [1, 7]: 16 µg/mL | Fold Reduction [1, 8]: 1

Compound: O=c1c2ccccc2ccc2ccccc12 [Compound I-3]
Oxacillin MIC [1, 7]: 16 µg/mL | Fold Reduction [1, 8]: 1

Compound: C1=Cc2ccccc2Nc2ccccc21 [Compound I-4]
Oxacillin MIC [1, 7]: 16 µg/mL | Fold Reduction [1, 8]: 1

Compound: O=C1CCCNc2cc(Cl)ccc21 [Compound I-6]
Oxacillin MIC [1, 7]: 16 µg/mL | Fold Reduction [1, 8]: 1

Second part, led by results:

MIC [5]: >2000 µM | Oxacillin MIC [1, 9]: 32 µg/mL | IC50 [6]: > 100 µM
Compound: c1ccc(-c2ccccn2)nc1 [Compound V-1]
Fold Reduction [1, 10]: 1

MIC [5]: 1000 µM | Oxacillin MIC [1, 9]: 32 µg/mL | IC50 [6]: 84.6 µM
Compound: c1cnc2ccc3ncccc3c2c1 [Compound V-2]
Fold Reduction [1, 10]: 1

MIC [5]: >250 µM | Oxacillin MIC [1, 11]: 8 µg/mL | IC50 [6]: > 100 µM
Compound: Brc1cc2ccccc2c2ccccc12 [Compound V-3]
Fold Reduction [1, 12]: 4

MIC [5]: 125 µM | Oxacillin MIC [1, 13]: 8 µg/mL | IC50 [6]: 51.8 µM
Compound: c1cnc2c(c1)ccc1cccnc12 [Compound V-4]
Fold Reduction [1, 14]: 4

MIC [5]: 1000 µM | Oxacillin MIC [1, 9]: 32 µg/mL | IC50 [6]: 38.5 µM
Compound: Clc1ccc2ccc3cccnc3c2n1 [Compound V-5]
Fold Reduction [1, 10]: 1

MIC [5]: 31.25 µM | Oxacillin MIC ([1]; +7.8125 μM compound, S. aureus 43300 (MRSA)): 16 µg/mL | IC50 [6]: > 100 µM
Compound: O=[N+]([O-])c1cc2cccnc2c2ncccc12 [Compound V-7]
Fold Reduction ([1]; oxacillin MIC, +7.8125 μM compound, S. aureus 43300 (MRSA)): 2

MIC [5]: 125 µM | Oxacillin MIC [1, 13]: 2 µg/mL | IC50 [6]: 78.9 µM
Compound: Cc1cc2cccnc2c2ncccc12 [Compound V-8]
Fold Reduction [1, 14]: 16

MIC [5]: 125 µM | Oxacillin MIC [1, 13]: 32 µg/mL | IC50 [6]: < 5 µM
Compound: Cc1ccc2ccc3ccc(C)nc3c2n1 [Compound V-9]
Fold Reduction [1, 14]: 1

MIC [5]: >500 µM | Oxacillin MIC [1, 11]: 32 µg/mL | IC50 [6]: 27.3 µM
Compound: Clc1ccnc2c1ccc1c(Cl)ccnc12 [Compound V-10]
Fold Reduction [1, 12]: 1

MIC [5]: 250 µM | Oxacillin MIC ([1]; +62.5 μM compound, S. aureus 43300 (MRSA)): 32 µg/mL | IC50 [6]: > 100 µM
Compound: Oc1ccnc2c1ccc1c(O)ccnc12 [Compound V-11]
Fold Reduction ([1]; oxacillin MIC, +62.5 μM compound, S. aureus 43300 (MRSA)): 1
